Patent US20230174584A1, “Antibiotic Compounds” (priority 2019, published 2023)
≈ marks a conversion by molar mass, not a printed value. Read-outs that look alike come from different tables or passages of the source.

Columns and labels:
[1] = test system: S. aureus HIP13419, NR-46413; experiment: microbe, parasite or virus in culture; assay type: cell-based, Staphylococcus aureus
How it was run: (§1)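 We measured MICs by CLSI broth microdilution with polysorbate 80 (0.002%) in TSB, a 10^6 CFU/mL inoculum, and a 24 h, 37 °C shaken incubation.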

[2] = test system: S. aureus USA300; experiment: microbe, parasite or virus in culture; assay type: cell-based, Staphylococcus aureus
How it was run: as §1

[3] = test system: E. faecium E0072; experiment: MIC assay; assay type: cell-based, Enterococcus faecium
How it was run: as §1

[4] = test system: E. faecium E0300; experiment: MIC assay; assay type: cell-based, Enterococcus faecium
How it was run: as §1

[5] = test system: E. faecium E0506; experiment: MIC assay; assay type: cell-based, Enterococcus faecium
How it was run: as §1

[6] = test system: E. faecium E1763; experiment: MIC assay; assay type: cell-based, Enterococcus faecium
How it was run: as §1

[7] = test system: E. faecium E7401; experiment: MIC assay; assay type: cell-based, Enterococcus faecium
How it was run: as §1

[8] = test system: E. faecium E8218; experiment: MIC assay; assay type: cell-based, Enterococcus faecium
How it was run: as §1

[9] = test system: E. faecium E8235; experiment: MIC assay; assay type: cell-based, Enterococcus faecium
How it was run: as §1

[10] = test system: E. faecalis E1246; experiment: MIC assay; assay type: cell-based, Enterococcus faecalis
How it was run: as §1

[11] = test system: E. faecalis E7406; experiment: microbe, parasite or virus in culture; assay type: cell-based, Enterococcus faecalis
How it was run: as §1

[12] = test system: E. faecalis E7604; experiment: microbe, parasite or virus in culture; assay type: cell-based, Enterococcus faecalis
How it was run: as §1

[13] = test system: Escherichia coli ATCC 25922; experiment: MIC assay; assay type: cell-based
How it was run: as §1

[14] = test system: Escherichia coli ATCC 35218; experiment: MIC assay; assay type: cell-based
How it was run: as §1

[15] = test system: Escherichia coli W3110; experiment: MIC assay; assay type: cell-based
How it was run: as §1

[16] = test system: Klebsiella pneumoniae ATCC 13883; experiment: MIC assay; assay type: cell-based
How it was run: as §1

[17] = test system: Klebsiella pneumoniae ATCC 27736; experiment: MIC assay; assay type: cell-based
How it was run: as §1

[18] = test system: Klebsiella pneumoniae JS265; experiment: MIC assay; assay type: cell-based
How it was run: as §1

[19] = test system: S. pneumoniae 153; experiment: MIC assay; assay type: cell-based
How it was run: as §1

[20] = test system: E. faecium E1441; experiment: MIC assay; assay type: cell-based, Enterococcus faecium
[21] = test system: E. faecium E2359; experiment: MIC assay; assay type: cell-based, Enterococcus faecium
[22] = E. faecalis E1246 VRE (vanA), Table 9
[23] = Staphylococcus aureus, MRSA / USA300

Compound: CN[C@H](CC(C)C)C(=O)N[C@H]1C(=O)N[C@@H](CC(N)=O)C(=O)N[C@H]2C(=O)N[C@H]3C(=O)N[C@H](C(=O)N[C@H](C(=O)O)c4cc(O)cc(O)c4-c4cc3ccc4O)[C@H](O)c3ccc(c(Cl)c3)Oc3cc2cc(c3O[C@@H]2O[C@H](CO)[C@@H](O)[C@H](O)[C@H]2O[C@H]2C[C@](C)(NCc3ccc(N=C(N)NC/C=C(\C)CCC=C(C)C)cc3)[C@H](O)[C@H](C)O2)Oc2ccc(cc2Cl)[C@H]1O [Compound 14]
- MIC ([1]; S. aureus HIP13419, NR-46413 VRSA): 0.063 µg/mL (≈ 0.0364 µM)
- MIC ([2]; MRSA USA300, TSB + 0.002% p80): 0.031 µg/mL
- MIC ([2]; S. aureus USA300 MRSA): 0.03125 µg/mL (≈ 0.018 µM)
- MIC ([3]; E. faecium E0072, VanA): 0.5 µg/mL (≈ 0.289 µM)
- MIC ([4]; E. faecium E0300, VanA): 4 µg/mL (≈ 2.31 µM)
- MIC ([5]; E. faecium E0506, VanA): 2 µg/mL (≈ 1.15 µM)
- MIC ([6]; E. faecium E1763, VanA): 0.125 µg/mL (≈ 0.0721 µM)
- MIC ([7]; E. faecium E7401, VanB): ≤0.008 µg/mL
- MIC ([8]; E. faecium E8218, VanB): ≤0.008 µg/mL
- MIC ([9]; E. faecium E8235, VanB): ≤0.008 µg/mL
- MIC ([10]; E. faecalis E1246 VRE (VanA), Table 7): 8 µg/mL (≈ 4.62 µM)
- MIC [10, 22]: 8 µg/mL (≈ 4.62 µM)
- MIC ([11]; E. faecalis E7406 VRE (VanB)): ≤0.007812 µg/mL
- MIC ([12]; E. faecalis E7604 VRE (vanB)): ≤0.008 µg/mL
- MIC [13]: >128 µg/mL
- MIC [14]: >128 µg/mL
- MIC [15]: >128 µg/mL
- MIC [16]: >128 µg/mL
- MIC [17]: >128 µg/mL
- MIC [18]: >128 µg/mL
- MIC ([19]; S. pneumoniae 153, TSB+0.002% p80+5% lysed horse blood): ≤0.008 µg/mL
- MIC ([20]; E. faecium E1441, VanA): 4 µg/mL (≈ 2.31 µM)
- MIC ([21]; E. faecium E2359, VanB): ≤0.008 µg/mL

Compound: CCCCCCCCCCNCCN[C@@]1(C)C[C@H](O[C@H]2[C@H](Oc3c4cc5cc3Oc3ccc(cc3Cl)[C@@H](O)[C@@H](NC(=O)[C@@H](CC(C)C)NC)C(=O)N[C@@H](CC(N)=O)C(=O)N[C@H]5C(=O)N[C@H]3C(=O)N[C@H](C(=O)N[C@H](C(=O)O)c5cc(O)c(CNCP(=O)(O)O)c(O)c5-c5cc3ccc5O)[C@H](O)c3ccc(c(Cl)c3)O4)O[C@H](CO)[C@@H](O)[C@@H]2O)O[C@@H](C)[C@H]1O [Telavancin, reference compound]
- MIC ([1]; Staphylococcus aureus, VRSA): 4 µg/mL (≈ 2.28 µM)
- MIC [2, 23]: 0.125 µg/mL (≈ 0.0712 µM)
- MIC ([3]; Enterococcus faecium, E0072): 2 µg/mL (≈ 1.14 µM)
- MIC ([4]; Enterococcus faecium, E0300): 8 µg/mL (≈ 4.56 µM)
- MIC ([5]; Enterococcus faecium, E0506): 4 µg/mL (≈ 2.28 µM)
- MIC ([6]; Enterococcus faecium, E1763): 1 µg/mL (≈ 0.57 µM)
- MIC ([7]; Enterococcus faecium, E7401): ≤ 0.008 µg/mL
- MIC ([8]; Enterococcus faecium, E8218): ≤ 0.008 µg/mL
- MIC ([9]; Enterococcus faecium, E8235): ≤ 0.008 µg/mL
- MIC [10, 22]: 4 µg/mL (≈ 2.28 µM)
- MIC ([10]; Enterococcus faecalis, VRE): 4 µg/mL (≈ 2.28 µM)
- MIC ([11]; Enterococcus faecalis, VRE): 0.0625 µg/mL (≈ 0.0356 µM)
- MIC ([12]; Enterococcus faecalis, VRE): 0.063 µg/mL (≈ 0.0359 µM)
- MIC ([13]; ATCC25922, read-out: MIC): > 128 µg/mL
- MIC [14]: > 128 µg/mL
- MIC ([15]; read-out: MIC): > 128 µg/mL
- MIC ([16]; ATCC13883, read-out: MIC): > 128 µg/mL
- MIC ([17]; ATCC27736, read-out: MIC): > 128 µg/mL
- MIC ([18]; read-out: MIC): > 128 µg/mL
- MIC ([19]; Streptococcus pneumoniae, 153): ≤ 0.008 µg/mL
- MIC ([20]; Enterococcus faecium, E1441): 8 µg/mL (≈ 4.56 µM)
- MIC ([21]; Enterococcus faecium, E2359): ≤ 0.008 µg/mL

Compound: CN[C@H](CC(C)C)C(=O)N[C@H]1C(=O)N[C@@H](CC(N)=O)C(=O)N[C@H]2C(=O)N[C@H]3C(=O)N[C@H](C(=O)N[C@H](C(=O)O)c4cc(O)cc(O)c4-c4cc3ccc4O)[C@H](O)c3ccc(c(Cl)c3)Oc3cc2cc(c3O[C@@H]2O[C@H](CO)[C@@H](O)[C@H](O)[C@H]2O[C@H]2C[C@](C)(N)[C@H](O)[C@H](C)O2)Oc2ccc(cc2Cl)[C@H]1O [Vancomycin, reference compound]
- MIC ([1]; Staphylococcus aureus, VRSA): > 128 µg/mL
- MIC [2, 23]: 1 µg/mL (≈ 0.69 µM)
- MIC ([3]; Enterococcus faecium, E0072): > 128 µg/mL
- MIC ([4]; Enterococcus faecium, E0300): > 128 µg/mL
- MIC ([5]; Enterococcus faecium, E0506): > 128 µg/mL
- MIC ([6]; Enterococcus faecium, E1763): 128 µg/mL (≈ 88.3 µM)
- MIC ([7]; Enterococcus faecium, E7401): 16 µg/mL (≈ 11 µM)
- MIC ([8]; Enterococcus faecium, E8218): 8 µg/mL (≈ 5.52 µM)
- MIC ([9]; Enterococcus faecium, E8235): 16 µg/mL (≈ 11 µM)
- MIC [10, 22]: >128 µg/mL
- MIC ([10]; Enterococcus faecalis, VRE): > 128 µg/mL
- MIC ([11]; Enterococcus faecalis, VRE): 16 µg/mL (≈ 11 µM)
- MIC ([12]; Enterococcus faecalis, VRE): 16 µg/mL (≈ 11 µM)
- MIC ([13]; ATCC25922, read-out: MIC): > 128 µg/mL
- MIC [14]: > 128 µg/mL
- MIC ([15]; read-out: MIC): > 128 µg/mL
- MIC ([16]; ATCC13883, read-out: MIC): > 128 µg/mL
- MIC ([17]; ATCC27736, read-out: MIC): > 128 µg/mL
- MIC ([18]; read-out: MIC): > 128 µg/mL
- MIC ([19]; Streptococcus pneumoniae, 153): 0.5 µg/mL (≈ 0.345 µM)
- MIC ([20]; Enterococcus faecium, E1441): > 128 µg/mL
- MIC ([21]; Enterococcus faecium, E2359): 128 µg/mL (≈ 88.3 µM)
